Assay results published in PubChem BioAssay (NCI).
Several values for one entry are separate records, joined by “and”; a condition that tells them apart may be missing. Identical values can stand only once.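 Interpolation was linear, between the two tested concentrations surrounding the appropriate level; five concentrations were tested over 48 hours in 96-well plates. GI50: concentration for 50% inhibition of growth. TGI: total growth inhibition.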 Where a SMILES comes first, the peptide text is derived from it.

Key:
Experiment in all cases: inhibition of tumour cell growth, NCI panel, 48 h
SF-539 CNS = system: SF-539 CNS
SN12C renal = system: SN12C renal
OVCAR-4 ovarian = system: OVCAR-4 ovarian
IGROV1 ovarian = system: IGROV1 ovarian
DMS 114 small cell lung = system: DMS 114 small cell lung
M19-MEL melanoma = system: M19-MEL melanoma
M14 melanoma = system: M14 melanoma
DLD-1 colon = system: DLD-1 colon
SF-295 CNS = system: SF-295 CNS
HT29 colon = system: HT29 colon
T-47D breast = system: T-47D breast

## O=[N+]([O-])c1cc(Cl)ccc1OCc1ccccc1
SF-539 CNS
  TGI: > 100 µM
SN12C renal
  TGI: > 100 µM
OVCAR-4 ovarian
  TGI: > 100 µM
IGROV1 ovarian
  TGI: > 100 µM
DMS 114 small cell lung
  TGI: > 100 µM
M19-MEL melanoma
  TGI: > 100 µM
M14 melanoma
  TGI: > 100 µM
DLD-1 colon
  TGI: > 100 µM
SF-295 CNS
  TGI: > 100 µM
HT29 colon
  TGI: 84.1 µM

## CCC(C)C1NC(=O)C2CCCN2C(=O)CNC(=O)C(C)NC(=O)C(Cc2ccccc2)NC(=O)C(C(C)C)NC1=O (stereo unspecified) (cyclo(GPIVFA); configuration not given here)
SF-539 CNS
  TGI: > 100 µM
SN12C renal
  TGI: > 100 µM
OVCAR-4 ovarian
  TGI: > 100 µM
IGROV1 ovarian
  TGI: > 100 µM
DMS 114 small cell lung
  TGI: > 100 µM
M19-MEL melanoma
  TGI: > 100 µM
M14 melanoma
  TGI: > 100 µM
DLD-1 colon
  TGI: > 100 µM
SF-295 CNS
  TGI: > 100 µM
HT29 colon
  TGI: > 100 µM

## CC12CO[C@@](C)(CC(S(=O)(=O)c3ccccc3)C1)O2 (stereo partly specified)
SF-539 CNS
  TGI: > 100 µM
SN12C renal
  TGI: > 100 µM
OVCAR-4 ovarian
  TGI: > 100 µM
IGROV1 ovarian
  TGI: > 100 µM
DMS 114 small cell lung
  TGI: > 100 µM
M19-MEL melanoma
  TGI: > 100 µM
M14 melanoma
  TGI: > 100 µM
DLD-1 colon
  TGI: > 100 µM
SF-295 CNS
  TGI: > 100 µM
HT29 colon
  TGI: > 100 µM

## COc1cc2c(cc1OC)NC(=O)NC(Cc1ccc3c(c1)OCO3)CC2 (stereo unspecified)
SN12C renal
  TGI: > 100 µM
OVCAR-4 ovarian
  TGI: > 100 µM
IGROV1 ovarian
  TGI: > 100 µM
DMS 114 small cell lung
  TGI: > 100 µM
M19-MEL melanoma
  TGI: > 100 µM
M14 melanoma
  TGI: > 100 µM
DLD-1 colon
  TGI: > 100 µM
SF-295 CNS
  TGI: > 100 µM

## COc1ccc2c(c1)[n+]([O-])c(-c1ccc(C)cc1)c(N)[n+]2[O-]
SF-539 CNS
  TGI: > 100 µM
SN12C renal
  TGI: > 100 µM
OVCAR-4 ovarian
  TGI: > 100 µM
IGROV1 ovarian
  TGI: > 100 µM
DMS 114 small cell lung
  TGI: 61.4 µM
M19-MEL melanoma
  TGI: > 100 µM
M14 melanoma
  TGI: > 100 µM
DLD-1 colon
  TGI: > 100 µM
SF-295 CNS
  TGI: > 100 µM
HT29 colon
  TGI: > 100 µM

## O=C(CC1(O)C(=O)Nc2ccccc21)c1ccc(O)cc1 (stereo unspecified)
SF-539 CNS
  TGI: > 100 µM
SN12C renal
  TGI: > 100 µM
OVCAR-4 ovarian
  TGI: > 100 µM
IGROV1 ovarian
  TGI: > 100 µM
DMS 114 small cell lung
  TGI: > 100 µM
M19-MEL melanoma
  TGI: > 100 µM
M14 melanoma
  TGI: > 100 µM
DLD-1 colon
  TGI: > 100 µM
SF-295 CNS
  TGI: > 100 µM
HT29 colon
  TGI: > 100 µM

## COc1cccc2c1C(=O)c1c(O)c3c(c(O)c1C2=O)C[C@@](O)(C(=O)CO)CC3OC1CC(O)C(O)C(C)O1 (stereo partly specified)
SF-539 CNS
  TGI: 0.795 µM
SN12C renal
  TGI: 8.19 µM
OVCAR-4 ovarian
  TGI: 6.85 µM
IGROV1 ovarian
  TGI: 23.6 µM
DMS 114 small cell lung
  TGI: 0.958 µM
M19-MEL melanoma
  TGI: 1.96 µM
M14 melanoma
  TGI: 1.88 µM
T-47D breast
  TGI: 5.44 µM
DLD-1 colon
  TGI: 10.8 µM
SF-295 CNS
  TGI: 1.16 µM
HT29 colon
  TGI: 4.25 µM

## O=S1(=O)CCCS(=O)(=O)C(c2ccccc2)=C1c1ccccc1
SF-539 CNS
  TGI: > 100 µM
SN12C renal
  TGI: > 100 µM
OVCAR-4 ovarian
  TGI: > 100 µM
IGROV1 ovarian
  TGI: > 100 µM
DMS 114 small cell lung
  TGI: > 100 µM
M19-MEL melanoma
  TGI: > 100 µM
M14 melanoma
  TGI: > 100 µM
DLD-1 colon
  TGI: > 100 µM
HT29 colon
  TGI: > 100 µM

## Clc1ccc2nc(-c3ccccc3)nc(Cl)c2c1
SF-539 CNS
  TGI: > 100 µM
SN12C renal
  TGI: > 100 µM
IGROV1 ovarian
  TGI: > 100 µM
DMS 114 small cell lung
  TGI: > 100 µM
M19-MEL melanoma
  TGI: > 100 µM
DLD-1 colon
  TGI: > 100 µM
SF-295 CNS
  TGI: > 100 µM
HT29 colon
  TGI: > 100 µM

## CCOC(=O)c1oc2ccc([N+](=O)[O-])c3c2c1CCC3
SF-539 CNS
  TGI: 39.7 µM
SN12C renal
  TGI: > 100 µM
OVCAR-4 ovarian
  TGI: > 100 µM
IGROV1 ovarian
  TGI: > 100 µM
DMS 114 small cell lung
  TGI: > 100 µM
M19-MEL melanoma
  TGI: > 100 µM
M14 melanoma
  TGI: > 100 µM
T-47D breast
  TGI: > 31.6 µM
DLD-1 colon
  TGI: > 100 µM
SF-295 CNS
  TGI: 53.9 µM
HT29 colon
  TGI: > 100 µM

## COC(=O)N/N=C(/CCC(=O)Nc1ccc(C)c(C)c1)CC(=O)C(C)(C)C
SF-539 CNS
  TGI: > 100 µM
SN12C renal
  TGI: > 100 µM
OVCAR-4 ovarian
  TGI: > 100 µM
IGROV1 ovarian
  TGI: > 100 µM
DMS 114 small cell lung
  TGI: > 100 µM
M19-MEL melanoma
  TGI: > 100 µM
M14 melanoma
  TGI: > 100 µM
DLD-1 colon
  TGI: > 100 µM
SF-295 CNS
  TGI: > 100 µM
HT29 colon
  TGI: > 100 µM

## CC1=C(C(=O)Nc2ccc([N+](=O)[O-])cc2)C(c2ccc3c(c2)OCO3)C(C(=O)Nc2ccc([N+](=O)[O-])cc2)=C(C)N1
SF-539 CNS
  TGI: > 100 µM
SN12C renal
  TGI: > 100 µM
OVCAR-4 ovarian
  TGI: > 100 µM
IGROV1 ovarian
  TGI: > 100 µM
DMS 114 small cell lung
  TGI: > 100 µM
M19-MEL melanoma
  TGI: 61.6 µM
M14 melanoma
  TGI: 50.4 µM
DLD-1 colon
  TGI: > 100 µM
SF-295 CNS
  TGI: > 100 µM
HT29 colon
  TGI: > 100 µM

## O=S1(=O)CS(=O)(=O)OCCO1
SF-539 CNS
  GI50: 30.4 µM
  TGI: > 78.2 µM and 63.5 µM
SN12C renal
  TGI: 335 µM
OVCAR-4 ovarian
  TGI: 130 µM
IGROV1 ovarian
  GI50: > 69.7 µM
  TGI: 144 µM
DMS 114 small cell lung
  TGI: 108 µM
M19-MEL melanoma
  TGI: 126 µM
M14 melanoma
  GI50: > 78.5 µM
  TGI: 162 µM
T-47D breast
  GI50: 87.6 µM
  TGI: 557 µM
DLD-1 colon
  TGI: 164 µM
SF-295 CNS
  GI50: 43.1 µM
  TGI: 121 µM
HT29 colon
  TGI: 347 µM

## COc1ccc(-c2cc(-c3cc(Cl)cc(Br)c3O)[nH]c(=O)n2)cc1
SF-539 CNS
  TGI: 28.8 µM
SN12C renal
  TGI: 32.3 µM
OVCAR-4 ovarian
  TGI: 26.5 µM
IGROV1 ovarian
  TGI: 52.4 µM
DMS 114 small cell lung
  TGI: 38 µM
M19-MEL melanoma
  TGI: 46.4 µM
M14 melanoma
  TGI: 43.3 µM
DLD-1 colon
  TGI: 38.4 µM
SF-295 CNS
  TGI: 32.7 µM
HT29 colon
  TGI: 39.4 µM

## CCN(CC)C(=O)N1CCN(C=S)CC1
SF-539 CNS
  TGI: > 100 µM
SN12C renal
  TGI: > 100 µM
OVCAR-4 ovarian
  TGI: > 100 µM
IGROV1 ovarian
  TGI: > 100 µM
DMS 114 small cell lung
  TGI: > 100 µM
M19-MEL melanoma
  TGI: > 100 µM
M14 melanoma
  TGI: > 100 µM
DLD-1 colon
  TGI: > 100 µM
HT29 colon
  TGI: > 100 µM

## COC(=O)C(CBr)CBr
SF-539 CNS
  TGI: 13.2 µM
SN12C renal
  TGI: 9.28 µM
OVCAR-4 ovarian
  TGI: 8.58 µM
IGROV1 ovarian
  TGI: 25.5 µM
DMS 114 small cell lung
  TGI: 4.23 µM
M19-MEL melanoma
  TGI: 17.2 µM
M14 melanoma
  TGI: 4.72 µM
T-47D breast
  TGI: 7.22 µM
DLD-1 colon
  TGI: 8.29 µM
SF-295 CNS
  TGI: 31.1 µM
HT29 colon
  TGI: 11 µM

## CC1(C)C=N[N+]2(C)C3C=CC(CC3)C12 (stereo unspecified)
SF-539 CNS
  TGI: > 100 µM
SN12C renal
  TGI: > 100 µM
IGROV1 ovarian
  TGI: > 100 µM
DMS 114 small cell lung
  TGI: > 100 µM
M19-MEL melanoma
  TGI: > 100 µM
M14 melanoma
  TGI: > 100 µM
DLD-1 colon
  TGI: > 100 µM
SF-295 CNS
  TGI: > 100 µM
HT29 colon
  TGI: > 100 µM

## C/C(=N\N=C(\[Se])N(C)C)c1ccccn1
SF-539 CNS
  TGI: 9.03 µM
SN12C renal
  TGI: 14.9 µM
OVCAR-4 ovarian
  TGI: 13.9 µM
IGROV1 ovarian
  TGI: 10.1 µM
DMS 114 small cell lung
  TGI: < 0.01 µM
M19-MEL melanoma
  TGI: 5.02 µM
M14 melanoma
  TGI: 3.24 µM
T-47D breast
  TGI: 32.3 µM
DLD-1 colon
  TGI: 16.9 µM
SF-295 CNS
  TGI: 12 µM
HT29 colon
  TGI: 14.2 µM

## C=CC1(NS(=O)(=O)c2ccc(C)cc2)CCC(C(C)(C)C)CC1 (stereo unspecified)
SF-539 CNS
  TGI: > 100 µM
SN12C renal
  TGI: > 100 µM
OVCAR-4 ovarian
  TGI: > 100 µM
IGROV1 ovarian
  TGI: > 100 µM
DMS 114 small cell lung
  TGI: > 100 µM
M19-MEL melanoma
  TGI: > 100 µM
M14 melanoma
  TGI: > 100 µM
DLD-1 colon
  TGI: > 100 µM

## O=[N+]([O-])c1ccc(/C=C/c2csnn2)cc1
SF-539 CNS
  TGI: > 100 µM
SN12C renal
  TGI: > 100 µM
OVCAR-4 ovarian
  TGI: > 100 µM
IGROV1 ovarian
  TGI: > 100 µM
DMS 114 small cell lung
  TGI: > 100 µM
M19-MEL melanoma
  TGI: > 100 µM
M14 melanoma
  TGI: > 100 µM
DLD-1 colon
  TGI: > 100 µM
SF-295 CNS
  TGI: > 100 µM
HT29 colon
  TGI: > 100 µM
